Literature values in patent US8337481B2, “Method for treating otitis externa” (priority 2005, dated 2012).

Row | Compound | Biological Half Life
1 | C[C@]12C=CC(=O)C=C1CC[C@@H]1[C@@H]2[C@@H](O)C[C@@]2(C)[C@H]1CC[C@]2(O)C(=O)CO [prednisolone] | 18-36 Hours
2 | C[C@]12CCC(=O)C=C1CC[C@@H]1[C@@H]2[C@@H](O)C[C@@]2(C)[C@H]1CC[C@]2(O)C(=O)CO [hydrocortisone] | 8-12 Hours
3 | C[C@]12C=CC(=O)C=C1CC[C@H]1[C@@H]3C[C@@H](O)[C@](O)(C(=O)CO)[C@@]3(C)C[C@H](O)[C@@]12F [triamcinolone] | 18-36 Hours
4 | C[C@H]1C[C@@H]2[C@H]([C@@H](O)C[C@@]3(C)[C@H]2CC[C@]3(O)C(=O)CO)[C@@]2(C)C=CC(=O)C=C12 [Methyl-prednisolone, methylprednisolone] | 18-36 Hours
